According to PubChem BioAssay (NCI):
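Each compound was tested at five concentrations against cells in 96-well plates for 48 hours. The concentration for full growth arrest is given as TGI.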

Tests used:
Test in all cases: NCI tumour cell line growth inhibition, 48 h
SNB-19 CNS = test system: SNB-19 CNS
SNB-75 CNS = test system: SNB-75 CNS
HCT-116 colon = test system: HCT-116 colon
NCI/ADR-RES ovarian = test system: NCI/ADR-RES ovarian
MOLT-4 leukemia = test system: MOLT-4 leukemia
HL-60(TB) leukemia = test system: HL-60(TB) leukemia
SF-539 CNS = test system: SF-539 CNS
MDA-MB-231 breast = test system: MDA-MB-231 breast
NCI-H226 lung = test system: NCI-H226 lung
MCF7 breast = test system: MCF7 breast
HS 578T breast = test system: HS 578T breast
NCI-H460 lung = test system: NCI-H460 lung
CAKI-1 renal = test system: CAKI-1 renal
SF-268 CNS = test system: SF-268 CNS
SW-620 colon = test system: SW-620 colon
M14 melanoma = test system: M14 melanoma
SK-MEL-2 melanoma = test system: SK-MEL-2 melanoma
PC-3 prostate = test system: PC-3 prostate
DU-145 prostate = test system: DU-145 prostate
EKVX NSCLC = test system: EKVX NSCLC
COLO 205 colon = test system: COLO 205 colon
TK-10 renal = test system: TK-10 renal
BT-549 breast = test system: BT-549 breast
786-0 renal = test system: 786-0 renal
UACC-62 melanoma = test system: UACC-62 melanoma
UACC-257 melanoma = test system: UACC-257 melanoma
MDA-N = test system: MDA-N
NCI-H23 lung = test system: NCI-H23 lung
LOX IMVI melanoma = test system: LOX IMVI melanoma
SK-MEL-28 melanoma = test system: SK-MEL-28 melanoma
UO-31 renal = test system: UO-31 renal
OVCAR-8 ovarian = test system: OVCAR-8 ovarian
SN12C renal = test system: SN12C renal
SK-MEL-5 melanoma = test system: SK-MEL-5 melanoma
MDA-MB-435 = test system: MDA-MB-435
A549 NSCLC = test system: A549 NSCLC
KM12 colon = test system: KM12 colon
MALME-3M melanoma = test system: MALME-3M melanoma
OVCAR-4 ovarian = test system: OVCAR-4 ovarian
OVCAR-5 ovarian = test system: OVCAR-5 ovarian
HCT-15 colon = test system: HCT-15 colon
SK-OV-3 ovarian = test system: SK-OV-3 ovarian
OVCAR-3 ovarian = test system: OVCAR-3 ovarian
HT29 colon = test system: HT29 colon
A498 renal = test system: A498 renal
U251 CNS = test system: U251 CNS
RPMI-8226 leukemia = test system: RPMI-8226 leukemia
SF-295 CNS = test system: SF-295 CNS
HOP-92 NSCLC = test system: HOP-92 NSCLC
CCRF-CEM leukemia = test system: CCRF-CEM leukemia
ACHN renal = test system: ACHN renal
HCC-2998 colon = test system: HCC-2998 colon
RXF 393 renal = test system: RXF 393 renal
HOP-62 NSCLC = test system: HOP-62 NSCLC
K-562 leukemia = test system: K-562 leukemia
SR leukemia = test system: SR leukemia
IGROV1 ovarian = test system: IGROV1 ovarian

COc1ccc(C[C@@H](CO)NC2=C(C#N)CCC2)cc1
TGI (SNB-19 CNS): > 100 µM | TGI (SNB-75 CNS): 95.1 µM | TGI (HCT-116 colon): > 100 µM | TGI (NCI/ADR-RES ovarian): > 100 µM | TGI (MOLT-4 leukemia): > 100 µM | TGI (HL-60(TB) leukemia): 27.8 µM | TGI (SF-539 CNS): > 100 µM | TGI (MDA-MB-231 breast): > 100 µM | TGI (NCI-H226 lung): > 100 µM | TGI (MCF7 breast): > 100 µM | TGI (HS 578T breast): 93 µM | TGI (NCI-H460 lung): > 100 µM | TGI (CAKI-1 renal): > 100 µM | TGI (SF-268 CNS): > 100 µM | TGI (SW-620 colon): > 100 µM | TGI (M14 melanoma): > 100 µM | TGI (SK-MEL-2 melanoma): > 100 µM | TGI (PC-3 prostate): > 100 µM | TGI (DU-145 prostate): > 100 µM | TGI (EKVX NSCLC): > 100 µM | TGI (COLO 205 colon): > 100 µM | TGI (TK-10 renal): > 100 µM | TGI (BT-549 breast): > 100 µM | TGI (786-0 renal): > 100 µM | TGI (UACC-62 melanoma): > 100 µM | TGI (UACC-257 melanoma): > 100 µM | TGI (MDA-N): > 100 µM | TGI (NCI-H23 lung): > 100 µM | TGI (LOX IMVI melanoma): > 100 µM | TGI (SK-MEL-28 melanoma): > 100 µM | TGI (UO-31 renal): > 100 µM | TGI (OVCAR-8 ovarian): > 100 µM | TGI (SN12C renal): > 100 µM | TGI (SK-MEL-5 melanoma): > 100 µM | TGI (MDA-MB-435): > 100 µM | TGI (A549 NSCLC): > 100 µM | TGI (KM12 colon): 63.5 µM | TGI (MALME-3M melanoma): > 100 µM | TGI (OVCAR-4 ovarian): > 100 µM | TGI (OVCAR-5 ovarian): > 100 µM | TGI (HCT-15 colon): > 100 µM | TGI (SK-OV-3 ovarian): > 100 µM | TGI (OVCAR-3 ovarian): > 100 µM | TGI (HT29 colon): > 100 µM | TGI (A498 renal): 97.9 µM | TGI (U251 CNS): > 100 µM | TGI (RPMI-8226 leukemia): 59.6 µM | TGI (SF-295 CNS): > 100 µM | TGI (HOP-92 NSCLC): > 100 µM | TGI (CCRF-CEM leukemia): > 100 µM | TGI (ACHN renal): > 100 µM | TGI (HCC-2998 colon): > 100 µM | TGI (RXF 393 renal): > 100 µM | TGI (HOP-62 NSCLC): > 100 µM | TGI (K-562 leukemia): > 100 µM

O=C(Cn1c2c(c3ccccc31)CCCC2)N1CCCC1
TGI (SNB-19 CNS): > 100 µM | TGI (HCT-116 colon): > 100 µM | TGI (NCI/ADR-RES ovarian): > 100 µM | TGI (HL-60(TB) leukemia): > 100 µM | TGI (SF-539 CNS): > 100 µM | TGI (MCF7 breast): > 100 µM | TGI (HS 578T breast): 87.2 µM | TGI (NCI-H460 lung): > 100 µM | TGI (CAKI-1 renal): > 100 µM | TGI (SW-620 colon): > 100 µM | TGI (M14 melanoma): > 100 µM | TGI (SK-MEL-2 melanoma): > 100 µM | TGI (PC-3 prostate): > 100 µM | TGI (EKVX NSCLC): > 100 µM | TGI (COLO 205 colon): > 100 µM | TGI (TK-10 renal): > 100 µM | TGI (BT-549 breast): > 100 µM | TGI (786-0 renal): > 100 µM | TGI (UACC-62 melanoma): > 100 µM | TGI (UACC-257 melanoma): > 100 µM | TGI (MDA-N): > 100 µM | TGI (NCI-H23 lung): > 100 µM | TGI (LOX IMVI melanoma): > 100 µM | TGI (SK-MEL-28 melanoma): > 100 µM | TGI (UO-31 renal): > 100 µM | TGI (OVCAR-8 ovarian): > 100 µM | TGI (SR leukemia): > 100 µM | TGI (SN12C renal): > 100 µM | TGI (SK-MEL-5 melanoma): > 100 µM | TGI (MDA-MB-435): > 100 µM | TGI (A549 NSCLC): > 100 µM | TGI (MALME-3M melanoma): > 100 µM | TGI (OVCAR-4 ovarian): 73.3 µM | TGI (OVCAR-5 ovarian): > 100 µM | TGI (HCT-15 colon): > 100 µM | TGI (SK-OV-3 ovarian): > 100 µM | TGI (OVCAR-3 ovarian): > 100 µM | TGI (HT29 colon): > 100 µM | TGI (IGROV1 ovarian): > 100 µM | TGI (A498 renal): > 100 µM | TGI (RPMI-8226 leukemia): > 100 µM | TGI (SF-295 CNS): > 100 µM | TGI (HOP-92 NSCLC): > 100 µM | TGI (ACHN renal): > 100 µM | TGI (HCC-2998 colon): > 100 µM | TGI (HOP-62 NSCLC): > 100 µM

c1ccc(CCCCNCc2cc(CNCCCCc3ccccc3)cc(CNCCCCc3ccccc3)c2)cc1
TGI (SNB-19 CNS): 0.908 µM | TGI (HCT-116 colon): 6.42 µM | TGI (NCI/ADR-RES ovarian): 1.1 µM | TGI (HL-60(TB) leukemia): 0.434 µM | TGI (NCI-H460 lung): > 100 µM | TGI (M14 melanoma): 0.33 µM | TGI (DU-145 prostate): 2.07 µM | TGI (COLO 205 colon): 0.644 µM | TGI (BT-549 breast): 2.83 µM | TGI (786-0 renal): 26.4 µM | TGI (MDA-N): 10.2 µM | TGI (NCI-H23 lung): 2.11 µM | TGI (SK-MEL-28 melanoma): 1.84 µM | TGI (UO-31 renal): 0.949 µM | TGI (SN12C renal): 23.5 µM | TGI (A549 NSCLC): 0.326 µM | TGI (OVCAR-5 ovarian): 3.22 µM | TGI (HCT-15 colon): 0.368 µM | TGI (SK-OV-3 ovarian): 3.41 µM | TGI (OVCAR-3 ovarian): 2.77 µM | TGI (SF-295 CNS): 3.06 µM | TGI (CCRF-CEM leukemia): 0.432 µM | TGI (ACHN renal): 2.95 µM | TGI (K-562 leukemia): > 100 µM
